From PubChem BioAssay (NCI)
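Results reflect a 48-hour exposure of cells in 96-well plates to compound at five concentrations. At the TGI there is no net growth.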

Legend:
Test in all cases: NCI anticancer screen, dose series, 48 h
786-0 renal = system: 786-0 renal
A498 renal = system: A498 renal
A549 NSCLC = system: A549 NSCLC
DU-145 prostate = system: DU-145 prostate
HCT-116 colon = system: HCT-116 colon
HCT-15 colon = system: HCT-15 colon
HOP-92 NSCLC = system: HOP-92 NSCLC
M14 melanoma = system: M14 melanoma
MALME-3M melanoma = system: MALME-3M melanoma
NCI/ADR-RES ovarian = system: NCI/ADR-RES ovarian
RPMI-8226 leukemia = system: RPMI-8226 leukemia
SN12C renal = system: SN12C renal
SNB-19 CNS = system: SNB-19 CNS
SR leukemia = system: SR leukemia
SW-620 colon = system: SW-620 colon
TK-10 renal = system: TK-10 renal
U251 CNS = system: U251 CNS
UACC-62 melanoma = system: UACC-62 melanoma
UO-31 renal = system: UO-31 renal

SMILES | TGI (786-0 renal) [µM] | TGI (A498 renal) [µM] | TGI (A549 NSCLC) [µM] | TGI (DU-145 prostate) [µM] | TGI (HCT-116 colon) [µM] | TGI (HCT-15 colon) [µM] | TGI (HOP-92 NSCLC) [µM] | TGI (M14 melanoma) [µM] | TGI (MALME-3M melanoma) [µM] | TGI (NCI/ADR-RES ovarian) [µM] | TGI (RPMI-8226 leukemia) [µM] | TGI (SN12C renal) [µM] | TGI (SNB-19 CNS) [µM] | TGI (SR leukemia) [µM] | TGI (SW-620 colon) [µM] | TGI (TK-10 renal) [µM] | TGI (U251 CNS) [µM] | TGI (UACC-62 melanoma) [µM] | TGI (UO-31 renal) [µM]
O=[N+]([O-])c1nccn1CCCNc1ccnc2cc(Cl)ccc12 | > 100 | > 70.9 | > 100 | > 100 | > 100 | > 100 | > 21 | > 100 | > 57.3 | > 100 | > 100 | > 85.1 | > 64.2 | > 75.3 | > 100 | > 11.7 | > 100 | > 8.46 | > 88.4
C[n+]1ccc(/C2=C3\C=CC(=N3)/C(c3cc[n+](C)cc3)=c3/cc/c([nH]3)=C(\c3cc[n+](C)cc3)C3=N/C(=C(/c4cc[n+](C)cc4)C4C=CC2N4)C=C3)cc1 | > 100 | > 100 | > 100 | > 100 | > 100 | > 100 | > 100 | > 100 | > 100 | > 100 | > 100 | > 100 | > 100 | > 32.9 | > 100 | > 100 | > 32.2 | > 100 | > 100
COc1c(Br)cc2c(c1OC)C(Br)CCC(Br)(Br)C2=O (stereo not given) | 1.46 | 12.3 | 16.2 | 9.64 | 0.853 | 1.63 | 12.5 | 0.539 | 10.8 | 2.77 | 6.06 | 1.42 | 14.1 | 1.29 | 1.58 | 8.39 | 5.91 | 13.1 | 2.89
Oc1ccc(-c2cc(-c3cc(-c4ccc(O)cc4)no3)on2)cc1 | > 100 | > 100 | > 100 | > 100 | > 100 | > 100 | > 100 | > 100 | > 100 | > 100 | > 100 | > 100 | > 100 | > 31.6 | > 100 | > 100 | > 100 | > 100 | > 100
CC(C)(C)c1cc2c(OC/C=C/c3ccccc3)c(c1)Cc1cc(C(C#N)(OC/C=C/c3ccccc3)OC/C=C/c3ccccc3)cc(c1OC/C=C\c1ccccc1)Cc1cc(C(C)(C)C)cc(c1OC/C=C/c1ccccc1)Cc1cc(C(C#N)(OC/C=C\c3ccccc3)OC/C=C/c3ccccc3)cc(c1OC/C=C\c1ccccc1)C2 (stereo not given) | > 100 | > 100 | > 100 | > 100 | > 100 | > 100 | > 100 | > 100 | > 100 | > 100 | > 100 | > 100 | > 100 | 49.3 | > 100 | 54.3 | > 100 | > 100 | > 100
